In PubChem BioAssay AID328 (DTP/NCI, 2004):
“And” between values parts separate entries of the source, which are not always exact repeats. Identical values can stand only once. Inconclusive results and toxic doses are left out.

Tested on: BDF1 mice, P388 leukemia ip, median survival T/C
Experiment: NCI In Vivo Anticancer Drug Screen. Data for tumor model P388 Leukemia (intraperitoneal) in B6D2F1 (BDF1) mice
Conditions: endpoint: median survival time, higher = longer survival
How it was run: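 Vehicle-dosed animals serve as the reference; survival of compound-dosed, tumour-implanted mice is divided by it.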

[1] = dose: 100.0 mg/kg/injection, schedule: Q04DX003 (ip), vehicle: saline
[2] = dose: 200.0 mg/kg/injection, schedule: Q04DX003 (ip), vehicle: saline
[3] = dose: 25.0 mg/kg/injection, schedule: Q01DX009 (ip), vehicle: saline with Tween-80
[4] = dose: 50.0 mg/kg/injection, schedule: Q01DX009 (ip), vehicle: saline with Tween-80
[5] = dose: 100.0 mg/kg/injection, schedule: Q01DX009 (ip), vehicle: saline with Tween-80
[6] = dose: 100.0 mg/kg/injection, schedule: Q04DX003 (ip), vehicle: saline with Tween-80
[7] = dose: 200.0 mg/kg/injection, schedule: Q01DX009 (ip), vehicle: saline with Tween-80
[8] = dose: 200.0 mg/kg/injection, schedule: Q04DX003 (ip), vehicle: saline with Tween-80
[9] = dose: 400.0 mg/kg/injection, schedule: Q01DX009 (ip), vehicle: saline with Tween-80
[10] = dose: 400.0 mg/kg/injection, schedule: Q04DX003 (ip), vehicle: saline with Tween-80

Q: OC(CN(CCCl)CCCl)C(O)C(O)C(O)CN(CCCl)CCCl (stereo not given) was tested. Which T/C (dose: 0.13 mg/kg/injection, schedule: Q04DX003 (ip), vehicle: saline) did it give?
A: 150 % of control

Q: And the T/C (dose: 0.2 mg/kg/injection, schedule: Q04DX003 (ip), vehicle: saline)?
A: 166 % of control

Q: What about the T/C (dose: 0.25 mg/kg/injection, schedule: Q04DX003 (ip), vehicle: saline) of the same compound?
A: 155 % of control

Q: What about the T/C (dose: 0.3 mg/kg/injection, schedule: Q04DX003 (ip), vehicle: saline) of the same compound?
A: 191 % of control

Q: And the T/C (dose: 0.44 mg/kg/injection, schedule: Q04DX003 (ip), vehicle: saline)?
A: 212 % of control

Q: And the T/C (dose: 0.5 mg/kg/injection, schedule: Q04DX003 (ip), vehicle: saline)?
A: 183 % of control

Q: And the T/C (dose: 0.67 mg/kg/injection, schedule: Q01DX009 (ip), vehicle: saline)?
A: 241 % of control

Q: What about the T/C (dose: 1.0 mg/kg/injection, schedule: Q01DX009 (ip), vehicle: saline) of the same compound?
A: 219 % of control

Q: What about the T/C (dose: 1.0 mg/kg/injection, schedule: Q04DX003 (ip), vehicle: saline) of the same compound?
A: 177 % of control and 213 % of control

Q: What about the T/C (dose: 1.5 mg/kg/injection, schedule: Q01DX009 (ip), vehicle: saline) of the same compound?
A: 213 % of control

Q: And the T/C (dose: 1.5 mg/kg/injection, schedule: Q04DX003 (ip), vehicle: saline)?
A: 272 % of control and 177 % of control

Q: What about the T/C (dose: 2.0 mg/kg/injection, schedule: Q04DX003 (ip), vehicle: saline) of the same compound?
A: 281 % of control

Q: What about the T/C (dose: 2.25 mg/kg/injection, schedule: Q04DX003 (ip), vehicle: saline) of the same compound?
A: 245 % of control

Q: What about the T/C (dose: 6.0 mg/kg/injection, schedule: Q04DX003 (ip), vehicle: saline) of the same compound?
A: 86 % of control

Q: What about the T/C (dose: 26.0 micrograms/kg/injection, schedule: Q04DX003 (ip), vehicle: saline) of the same compound?
A: 100 % of control

Q: What about the T/C (dose: 40.0 micrograms/kg/injection, schedule: Q04DX003 (ip), vehicle: saline) of the same compound?
A: 112 % of control

Q: What about the T/C (dose: 60.0 micrograms/kg/injection, schedule: Q04DX003 (ip), vehicle: saline) of the same compound?
A: 120 % of control

Q: How did the T/C (dose: 12.5 mg/kg/injection, schedule: Q01DX009 (ip), vehicle: saline) turn out when N/C(=N\O)c1nn(C2OC(CO)C(O)C2O)c2ncnc(N)c12 (stereo not given) was run?
A: 102 % of control

Q: What about the T/C (dose: 12.5 mg/kg/injection, schedule: Q04DX003 (ip), vehicle: saline) of the same compound?
A: 115 % of control

Q: What about the T/C (dose: 25.0 mg/kg/injection, schedule: Q01DX009 (ip), vehicle: saline) of the same compound?
A: 114 % of control

Q: And the T/C (dose: 25.0 mg/kg/injection, schedule: Q04DX003 (ip), vehicle: saline)?
A: 105 % of control and 116 % of control

Q: And the T/C (dose: 50.0 mg/kg/injection, schedule: Q04DX003 (ip), vehicle: saline)?
A: 110 % of control and 112 % of control

Q: And the T/C [1]?
A: 105 % of control and 116 % of control

Q: And the T/C [2]?
A: 112 % of control

Q: With Nc1ccc(OCCCc2c(-c3ccccc3)nc(N)[nH]c2=O)cc1 as the compound, how does the T/C [3] read?
A: 100 % of control

Q: And the T/C [4]?
A: 99 % of control

Q: What about the T/C [5] of the same compound?
A: 108 % of control

Q: For CC(=O)OC1OC(COC(c2ccccc2)(c2ccccc2)c2ccccc2)C(OCc2ccccc2)C(OCc2ccccc2)C1OC(C)=O (stereo not given), which T/C (dose: 21.9 mg/kg/injection, schedule: Q01DX009 (ip), vehicle: other) is on record?
A: 95 % of control

Q: And the T/C (dose: 43.8 mg/kg/injection, schedule: Q01DX009 (ip), vehicle: other)?
A: 98 % of control

Q: And the T/C (dose: 87.5 mg/kg/injection, schedule: Q01DX009 (ip), vehicle: other)?
A: 93 % of control

Q: And the T/C (dose: 175.0 mg/kg/injection, schedule: Q01DX009 (ip), vehicle: other)?
A: 88 % of control

Q: And the T/C (dose: 350.0 mg/kg/injection, schedule: Q01DX009 (ip), vehicle: other)?
A: 88 % of control

Q: How did the T/C (dose: 6.3 mg/kg/injection, schedule: Q01DX009 (ip), vehicle: water) turn out when NC(=S)N=Nc1ccc(O)c2c(O)ccc(O)c12 was run?
A: 96 % of control

Q: And the T/C (dose: 12.5 mg/kg/injection, schedule: Q01DX009 (ip), vehicle: water)?
A: 94 % of control

Q: And the T/C (dose: 25.0 mg/kg/injection, schedule: Q01DX009 (ip), vehicle: water)?
A: 92 % of control

Q: What about the T/C (dose: 50.0 mg/kg/injection, schedule: Q01DX009 (ip), vehicle: water) of the same compound?
A: 86 % of control

Q: CC1COB(c2ccccc2)OCC(C)N1CNC(=O)C1=C(O)C2(O)C(O)=C3C(=O)C4C(O)=CC=CC4C(C)(O)C3CC2C(N(C)C)C1=O (stereo not given) was tested. Which T/C (dose: 50.0 mg/kg/injection, schedule: Q01DX009 (ip), vehicle: saline) did it give?
A: 109 % of control

Q: What about the T/C (dose: 100.0 mg/kg/injection, schedule: Q01DX009 (ip), vehicle: saline) of the same compound?
A: 98 % of control

Q: What about the T/C (dose: 200.0 mg/kg/injection, schedule: Q01DX009 (ip), vehicle: saline) of the same compound?
A: 111 % of control

Q: For Cc1[nH]c(=O)[nH]c(=O)c1C, which T/C (dose: 50.0 mg/kg/injection, schedule: Q01DX009 (ip), vehicle: Klucel (hydroxypropylcellulose) (HPC)) is on record?
A: 104 % of control

Q: What about the T/C (dose: 100.0 mg/kg/injection, schedule: Q01DX009 (ip), vehicle: Klucel (hydroxypropylcellulose) (HPC)) of the same compound?
A: 109 % of control

Q: What about the T/C (dose: 200.0 mg/kg/injection, schedule: Q01DX009 (ip), vehicle: Klucel (hydroxypropylcellulose) (HPC)) of the same compound?
A: 104 % of control

Q: With CC(C)CCS(=O)(=O)OCCCCOS(=O)(=O)CCC(C)C as the compound, how does the T/C [5] read?
A: 114 % of control

Q: What about the T/C [6] of the same compound?
A: 100 % of control

Q: And the T/C [7]?
A: 109 % of control

Q: What about the T/C [8] of the same compound?
A: 100 % of control

Q: And the T/C [9]?
A: 114 % of control

Q: What about the T/C [10] of the same compound?
A: 104 % of control

Q: How did the T/C (dose: 5.0 mg/kg/injection, schedule: Q01DX009 (ip), vehicle: saline with Tween-80) turn out when O=C(Nc1ccc(NC2=NCCN2)cc1)c1cccc(C(=O)Nc2ccc(NC3=NCCN3)cc2)c1 was run?
A: 116 % of control

Q: And the T/C (dose: 5.0 mg/kg/injection, schedule: Q04DX003 (ip), vehicle: saline with Tween-80)?
A: 100 % of control

Q: What about the T/C (dose: 10.0 mg/kg/injection, schedule: Q04DX003 (ip), vehicle: saline with Tween-80) of the same compound?
A: 100 % of control

Q: And the T/C (dose: 13.0 mg/kg/injection, schedule: Q01DX009 (ip), vehicle: saline with Tween-80)?
A: 150 % of control

Q: What about the T/C (dose: 20.0 mg/kg/injection, schedule: Q04DX003 (ip), vehicle: saline with Tween-80) of the same compound?
A: 122 % of control

Q: And the T/C (dose: 30.0 mg/kg/injection, schedule: Q01DX009 (ip), vehicle: saline with Tween-80)?
A: 122 % of control

Q: Which T/C (dose: 100.0 mg/kg/injection, schedule: Q04DX003 (ip), vehicle: alcohol) does the source give for CC(C)CCCC(C)C1CCC2C3CCC45CC4C(=O)CCC5(C)C3CCC12C (stereo not given) here?
A: 115 % of control

Q: What about the T/C (dose: 200.0 mg/kg/injection, schedule: Q04DX003 (ip), vehicle: alcohol) of the same compound?
A: 100 % of control

Q: What about the T/C (dose: 400.0 mg/kg/injection, schedule: Q04DX003 (ip), vehicle: alcohol) of the same compound?
A: 100 % of control

Q: Which results are given for CCCCCCCCSc1ncnc2nc[nH]c12?
A: T/C [5]: 108 % of control; T/C [6]: 100 % of control; T/C [7]: 87 % of control; T/C [8]: 100 % of control; T/C [9]: 108 % of control; T/C [10]: 100 % of control

Q: For C#CC1(OCC(O)CCl)CCCCC1 (stereo not given), which T/C [5] is on record?
A: 116 % of control

Q: What about the T/C [1] of the same compound?
A: 110 % of control

Q: And the T/C [7]?
A: 104 % of control

Q: What about the T/C [2] of the same compound?
A: 120 % of control

Q: And the T/C (dose: 400.0 mg/kg/injection, schedule: Q04DX003 (ip), vehicle: saline)?
A: 100 % of control

Q: What does the source list for Nc1nc(N)c(N=O)c(Nc2ccc(Cl)c(Cl)c2)n1?
A: T/C [4]: 109 % of control; T/C [5]: 109 % of control; T/C [7]: 95 % of control

Q: Which results are given for C1OC1CO[C@@H]1CO[C@H]2[C@@H]1OC[C@H]2OCC1CO1 (stereo not given in full)?
A: T/C (dose: 264.0 mg/kg/injection, schedule: Q04DX003 (ip), vehicle: saline with Tween-80): 183 % of control; T/C [10]: 195 % of control

Q: For CC(=O)Nc1ccc(Cl)c(Cl)c1, which T/C (dose: 100.0 mg/kg/injection, schedule: Q04DX003 (ip), vehicle: saline sonified) is on record?
A: 100 % of control

Q: What about the T/C [6] of the same compound?
A: 90 % of control

Q: And the T/C (dose: 200.0 mg/kg/injection, schedule: Q04DX003 (ip), vehicle: saline sonified)?
A: 120 % of control

Q: What about the T/C [8] of the same compound?
A: 100 % of control

Q: What about the T/C (dose: 400.0 mg/kg/injection, schedule: Q04DX003 (ip), vehicle: saline sonified) of the same compound?
A: 104 % of control

Q: What does the source list for CC1CCCC2(CN=C(Nc3ccccc3)O2)C1 (stereo not given)?
A: T/C (dose: 100.0 mg/kg/injection, schedule: Q01DX001 (ip), vehicle: Klucel (hydroxypropylcellulose) (HPC)): 99 % of control; T/C (dose: 200.0 mg/kg/injection, schedule: Q01DX001 (ip), vehicle: Klucel (hydroxypropylcellulose) (HPC)): 114 % of control

Q: For CC(C)(C)OC(=O)NOc1ccc([N+](=O)[O-])cc1[N+](=O)[O-], which T/C (dose: 3.12 mg/kg/injection, schedule: Q01DX009 (ip), vehicle: saline with Tween-80) is on record?
A: 117 % of control

Q: And the T/C (dose: 6.25 mg/kg/injection, schedule: Q01DX009 (ip), vehicle: saline with Tween-80)?
A: 90 % of control

Q: And the T/C (dose: 6.25 mg/kg/injection, schedule: Q04DX003 (ip), vehicle: saline with Tween-80)?
A: 100 % of control

Q: And the T/C (dose: 12.5 mg/kg/injection, schedule: Q01DX009 (ip), vehicle: saline with Tween-80)?
A: 106 % of control and 93 % of control

Q: What about the T/C (dose: 12.5 mg/kg/injection, schedule: Q04DX003 (ip), vehicle: saline with Tween-80) of the same compound?
A: 104 % of control

Q: And the T/C [3]?
A: 90 % of control and 96 % of control

Q: And the T/C (dose: 25.0 mg/kg/injection, schedule: Q04DX003 (ip), vehicle: saline with Tween-80)?
A: 97 % of control

Q: What about the T/C [4] of the same compound?
A: 93 % of control

Q: And the T/C (dose: 50.0 mg/kg/injection, schedule: Q04DX003 (ip), vehicle: saline with Tween-80)?
A: 97 % of control

Q: And the T/C [5]?
A: 100 % of control
